Source: US20250215039A1, “NUCLEOSIDES FOR TREATING CANCER” (PRIMEFOUR THERAPEUTICS, INC., priority 2022, published 2025)
Where two headings read alike, the source gives them in different places.

System: cancer cell lines
Assay: Cancer cell proliferation activity (CellTiterGlo, 72 h)
Type: cell-based
Details: 72 h, 72 h, read-out: IC50 cell proliferation
In short: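 Cells seeded overnight at 37 °C, then dosed with compound at 0.1% final DMSO and incubated 72 h at 37 °C (5% or 10% CO2 by medium).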

IC50 (5637 (bladder)): 950 nM | IC50 (CLS439 (bladder)): 2640 nM | IC50 (HS729 (muscle)): 440 nM | IC50 (J82 (bladder)): 1810 nM | IC50 (JAR (placenta)): 1600 nM | IC50 (MT3 (breast)): 230 nM | IC50 (PANCI (pancreas)): 5060 nM | IC50 (PC3 (prostate)): 280 nM | IC50 (RD (muscle)): 960 nM | IC50 (T24 (bladder)): 560 nM | IC50 (Homo sapiens, 22Rv1, 72 h, 22RV1 (prostate)): 2890 nM | IC50 (Homo sapiens, 786-0, 72 h, 786O (kidney)): 1570 nM | IC50 (Homo sapiens, A204, 72 h, A204 (muscle)): 190 nM | IC50 (Homo sapiens, A549, 72 h, A549 (lung)): 1330 nM | IC50 (Homo sapiens, A673, 72 h, A673 (bone)): 2530 nM | IC50 (Homo sapiens, A2780, 72 h, A2780 (ovary)): 1670 nM | IC50 (Homo sapiens, A-375, 72 h, A375 (skin)): 570 nM | IC50 (Homo sapiens, A-431, 72 h, A431 (skin)): 1240 nM | IC50 (Homo sapiens, ACHN, ACHN (kidney)): 1050 nM | IC50 (Homo sapiens, ASPC1, 72 h, ASPC1 (pancreas)): 320 nM | IC50 (Homo sapiens, BT-20, 72 h, BT20 (breast)): 2120 nM | IC50 (Homo sapiens, BXPC-3, 72 h, BXPC3 (pancreas)): 430 nM | IC50 (Homo sapiens, C-33-A, C33A (endometrial)): 410 nM | IC50 (Homo sapiens, CAKI-1, 72 h, CAKI1 (kidney)): 130 nM | IC50 (Homo sapiens, COLO 205, 72 h, COLO205 (colon)): 420 nM | IC50 (Homo sapiens, COLO-678, 72 h, COLO678 (colon)): 630 nM | IC50 (Homo sapiens, Ca-Ski, CASKI (endometrial)): 990 nM | IC50 (Homo sapiens, Caco-2, 72 h, CACO2 (colon)): 3520 nM | IC50 (Homo sapiens, Calu-6, 72 h, CALU6 (lung)): 400 nM | IC50 (Homo sapiens, DLD-1, 72 h, DLD1 (colon)): 1030 nM | IC50 (Homo sapiens, DU-145, 72 h, DU145 (prostate)): 340 nM | IC50 (Homo sapiens, EFO-21, 72 h, EFO21 (ovary)): 460 nM | IC50 (Homo sapiens, EJ-28, 72 h, EJ28 (bladder)): 1060 nM | IC50 (Homo sapiens, Granta-519, 72 h, GRANTA-519 (hematological)): 680 nM | IC50 (Homo sapiens, HCT-15, 72 h, HCT15 (colon)): 2010 nM | IC50 (Homo sapiens, HCT-116, 72 h, HCT116 (colon)): 1030 nM | IC50 (Homo sapiens, HEK293, 72 h, HEK293 (kidney)): 3610 nM | IC50 (Homo sapiens, HL-60, 72 h, HL-60 (hematological)): 230 nM | IC50 (Homo sapiens, HT-29, 72 h, HT29 (colon)): 700 nM | IC50 (Homo sapiens, HT-1080, 72 h, HT1080 (connective tissue)): 2790 nM | IC50 (Homo sapiens, HeLa, HELA (endometrial)): 310 nM | IC50 (Homo sapiens, HepG2, 72 h, HEPG2 (liver)): 2750 nM | IC50 (Homo sapiens, Hs-578T, HS578T (breast)): 1640 nM | IC50 (Homo sapiens, IGROV-1, 72 h, IGROV1 (ovary)): 1280 nM | IC50 (Homo sapiens, IMR-90, 72 h, IMR90 (lung)): 540 nM | IC50 (Homo sapiens, JEG-3, 72 h, JEG3 (placenta)): 2570 nM | IC50 (Homo sapiens, JIMT-1, 72 h, JIMT1 (breast)): 180 nM | IC50 (Homo sapiens, K562, 72 h, K-562 (hematological)): 5680 nM | IC50 (Homo sapiens, Kasumi 1, 72 h, KASUMI-1 (hematological)): 60 nM | IC50 (Homo sapiens, L-363, 72 h, L-363 (hematological)): 920 nM | IC50 (Homo sapiens, LoVo, LOVO (colon)): 440 nM | IC50 (Homo sapiens, MCF7, 72 h, MCF7 (breast)): 3060 nM | IC50 (Homo sapiens, MDA-MB-231, 72 h, MDAMB231 (breast)): 160 nM | IC50 (Homo sapiens, MDA-MB-435, 72 h, MDAMB435 (skin)): 2470 nM | IC50 (Homo sapiens, MDA-MB-436, 72 h, MDAMB436 (breast)): 620 nM | IC50 (Homo sapiens, MDA-MB-468, 72 h, MDAMB468 (breast)): 1440 nM | IC50 (Homo sapiens, MG-63, 72 h, MG63 (bone)): 1630 nM | IC50 (Homo sapiens, MHH-ES-1, 72 h, MHHES1 (bone)): 460 nM | IC50 (Homo sapiens, MIA PaCa-2, 72 h, MIAPACA2 (pancreas)): 2950 nM | IC50 (Homo sapiens, MINO, MINO (hematological)): 40 nM | IC50 (Homo sapiens, MV4-11, 72 h, MV4-11 (hematological)): 270 nM | IC50 (Homo sapiens, NCI-H23, 72 h, NCI-H23 (lung)): 2040 nM | IC50 (Homo sapiens, NCI-H82, 72 h, NCIH82 (lung)): 1600 nM | IC50 (Homo sapiens, NCI-H292, 72 h, NCIH292 (lung)): 2330 nM | IC50 (Homo sapiens, NCI-H460, 72 h, NCIH460 (lung)): 1950 nM | IC50 (Homo sapiens, OVCAR-3, 72 h, OVCAR3 (ovary)): 350 nM | IC50 (Homo sapiens, OVCAR-4, 72 h, OVCAR4 (ovary)): 1860 nM | IC50 (Homo sapiens, PLC-PRF-5, 72 h, PLCPRF5 (liver)): 2840 nM | IC50 (Homo sapiens, Panc1005, 72 h, PANC1005 (pancreas)): 660 nM | IC50 (Homo sapiens, Ramos, RAMOS (hematological)): 420 nM | IC50 (Homo sapiens, SAOS-2, 72 h, SAOS2 (bone)): 110 nM | IC50 (Homo sapiens, SF-268, 72 h, SF268 (brain)): 3020 nM | IC50 (Homo sapiens, SF-295, 72 h, SF295 (brain)): 3580 nM | IC50 (Homo sapiens, SK-BR-3, 72 h, SKBR3 (breast)): 140 nM | IC50 (Homo sapiens, SK-HEP1, 72 h, SKHEP1 (liver)): 280 nM | IC50 (Homo sapiens, SK-LMS-1, 72 h, SKLMS1 (uterus)): 3020 nM | IC50 (Homo sapiens, SK-MEL-5, 72 h, SKMEL5 (skin; SKMELS [sic] in Table 9E)): 1970 nM | IC50 (Homo sapiens, SK-MEL-28, 72 h, SKMEL28 (skin)): 980 nM | IC50 (Homo sapiens, SK-N-AS, SKNAS (brain)): 2550 nM | IC50 (Homo sapiens, SK-N-SH, SKNSH (brain)): 2260 nM | IC50 (Homo sapiens, SK-OV-3, 72 h, SKOV3 (ovary)): 510 nM | IC50 (Homo sapiens, SNB-75, 72 h, SNB75 (brain)): 1470 nM | IC50 (Homo sapiens, SU-DHL10, 72 h, SU-DHL-10 (hematological)): 730 nM | IC50 (Homo sapiens, SU-DHL-6, 72 h, SU-DHL-6 (hematological)): 980 nM | IC50 (Homo sapiens, SW-620, 72 h, SW620 (colon)): 680 nM | IC50 (Homo sapiens, TE-671, 72 h, TE671 (muscle)): 780 nM | IC50 (Homo sapiens, THP-1, 72 h, THP-1 (hematological)): 130 nM | IC50 (Homo sapiens, U2OS, U20S (bone; U2OS in Table 9E)): 960 nM | IC50 (Homo sapiens, U-87 MG, U87MG (brain)): 620 nM | IC50 (Homo sapiens, UMUC3, 72 h, UMUC3 (bladder)): 970 nM | IC50 (Homo sapiens, UO-31, 72 h, UO31 (kidney)): 420 nM | IC50 (Homo sapiens, WSU-NHL, WSU-NHL (hematological)): 340 nM | IC50 (NCI-H358M, NCIH358M (lung)): 60 nM | IC50 (PBMC, PBMC (hematological)): 150 nM | IC50 (RD-ES, RDES (bone)): 820 nM
SMILES: Nc1nc(F)nc2c1ncn2[C@H]1C[C@H](O)[C@@H](CO)O1 [compound 171, (2R,3S,5R)-5-(6-amino-2-fluoro-9H-purin-9-yl)-2-(hydroxymethyl)tetrahydrofuran-3-ol]
